For one data set, the system named is Candida albicans. Kind of data set: Antifungal activity against Candida albicans ATCC 90028 assessed as growth inhibition incubated for 36 hrs. Format: functional. The settings on record: 28A ATCC 90028.
The next data set has as its system Cryptococcus neoformans. Kind of data set: Antifungal activity against Cryptococcus neoformans H99 ATCC 208821 assessed as growth inhibition incubated for 36 hrs. Type of data set: functional. As to conditions: var. grubii H99 ATCC 208821.
Data set [1] is described as follows: Hemolytic activity in human RBC assessed as hemolysis incubated for 1 hr by CO-ADD method. Format: ADME, cell-based, Erythrocyte. As to conditions: red blood cells (erythrocytes).
For data set [2], the system named is Staphylococcus aureus. The data set is described as follows: Antimicrobial activity against methicillin resistant Staphylococcus aureus ATCC 43300 assessed as growth inhibition incubated for 18 hrs. Type of data set: functional.
Data set [3] deals with Escherichia coli. Kind of data set: Antibacterial activity against Escherichia coli ATCC 10418 assessed as inhibition of growth visually by CLSI method. Type of data set: functional.
In the next data set the test system is Klebsiella pneumoniae. The data set is described as follows: Antimicrobial activity against multidrug-resistant Klebsiella pneumoniae ATCC 700603 assessed as growth inhibition incubated for 18 hrs. Type of data set: functional.
Data set [4] concerns Escherichia coli. The data set is described as follows: Antimicrobial activity against Escherichia coli ATCC 25922 assessed as growth inhibition incubated for 18 hrs. Type of data set: functional.
The test system of the next data set is Pseudomonas aeruginosa. The data set is described as follows: Antimicrobial activity against Pseudomonas aeruginosa ATCC 27853 assessed as growth inhibition incubated for 18 hrs. Format: functional.
A further data set concerns Acinetobacter baumannii. The data set is described as follows: Antimicrobial activity against Acinetobacter baumannii ATCC 19606 assessed as growth inhibition incubated for 18 hrs. Format: functional.
Another data set concerns Streptococcus pneumoniae. The data set is described as follows: Antibacterial activity against Streptococcus pneumoniae ATCC 49619 assessed as inhibition of growth visually by CLSI method. Type of data set: functional.
The test system of data set [5] is Enterococcus faecalis. Kind of data set: Antibacterial activity against Enterococcus faecalis ATCC 29212 assessed as inhibition of growth visually by CLSI method. Type of data set: functional.
The subject of data set [6] is Staphylococcus aureus. The data set is described as follows: Antibacterial activity against Staphylococcus aureus ATCC 29213 assessed as inhibition of growth visually by CLSI method. Format: functional.
Data set [7] concerns Clostridioides difficile. Kind of data set: Antibacterial activity against Clostridioides difficile NSW 132 (RT027) assessed as inhibition of growth visually preincubated for 2 to 4 hrs measured after 48 hrs by CLSI method. Format: functional. As to conditions: time hrs <=52.
Data set [8] in a line: Cytotoxicity against human HEK-293 cells assessed as maximal inhibition at <= 32 ug/ml incubated for 23 hrs by CO-ADD method. Format: cell-based, HEK293. The settings on record: dose <=32 µg/ml, read-out: Imax.
Data set [9] is described as follows: Hemolytic activity in sheep RBC assessed as hemolysis at 50 microg/ml incubated for 2 hrs. Type of data set: ADME, cell-based, Ovis aries, Erythrocyte. As to conditions: red blood cells (erythrocytes), at 50 µg/mL, read-out: Activity.
Data set [10] can be described thus: Hemolytic activity in sheep RBC assessed as hemolysis at 5 microg/ml incubated for 2 hrs by CO-ADD method. Format: ADME, cell-based, Ovis aries, Erythrocyte. The settings on record: red blood cells (erythrocytes), at 5 µg/mL, read-out: Activity.
The subject of data set [11] is Enterococcus faecalis. Kind of data set: Antibacterial activity against vancomycin-resistant Enterococcus faecalis ATCC 51299 assessed as inhibition of growth visually by CLSI method. Format: functional.
Data set [12] can be described thus: Hemolytic activity in human RBC assessed as maximal hemolysis at <= 32 ug/ml incubated for 1 hr by CO-ADD method. Format: cell-based, Erythrocyte. The settings on record: red blood cells (erythrocytes), dose <=32 µg/ml, read-out: Activity.
Data set [13] has as its system Staphylococcus aureus. The data set is described as follows: Antibacterial activity against vancomycin intermediate susceptibility Staphylococcus aureus Mu50 assessed as inhibition of growth visually by CLSI method. Type of data set: functional.
Data set [14] in a line: Cytotoxicity against human HEK-293 cells incubated for 23 hrs by CO-ADD method. Type of data set: cell-based, HEK293.
Data set [15] deals with Staphylococcus aureus. The data set is described as follows: Antibacterial activity against methicillin-resistant Staphylococcus aureus NCTC 10442 assessed as inhibition of growth visually by CLSI method. Format: functional.
The test system of data set [16] is Clostridioides difficile. Kind of data set: Antibacterial activity against Clostridioides difficile ATCC 700057 assessed as inhibition of growth visually preincubated for 2 to 4 hrs measured after 48 hrs by CLSI method. Type of data set: functional. As to conditions: time hrs <=52.

≈ marks a conversion by molar mass, not a printed value.

This note sets out measurements from ChEMBL document CHEMBL4715932, “Positional Isomers of Biphenyl Antimicrobial Peptidomimetic Amphiphiles” (ACS Med Chem Lett, 2021).

Take `C[C@@H]1[C@H](O)[C@@H](C)/C=C/C=C/C=C/C=C/C=C/C=C/C=C/[C@H](O[C@@H]2O[C@H](C)[C@@H](O)[C@H](N)[C@@H]2O)C[C@@H]2O[C@](O)(C[C@@H](O)C[C@@H](O)[C@H](O)CC[C@@H](O)C[C@@H](O)CC(=O)O[C@H]1C)C[C@H](O)[C@H]2C(=O)O` [AMPHOTERICIN B]: the MIC80 in the data set with Candida albicans and in the data set on Cryptococcus neoformans was 1.56 µg/mL (≈ 1.69 µM) in each case.

As for `CCCCCCCCCCCC(=O)N(CCCCCCNC(=O)[C@@H](N)CCCCN)CCCCCCNC(=O)[C@@H](N)CCCCN`, the HC50 at 1 h in [1] amounted to 860 µg/mL. Moreover, the MIC in the data set with Staphylococcus aureus [2] and in the data set on Escherichia coli [3] was 3.1 µg/mL (≈ 4.74 µM) each time.

As to COLISTIN, the MIC=>80 in the data set with Klebsiella pneumoniae was 0.25 µg/mL; in the data set on Escherichia coli [4] it was 0.125 µg/mL; with Pseudomonas aeruginosa, 0.25 µg/mL; in the data set on Acinetobacter baumannii it was 0.25 µg/mL. In the data set with Escherichia coli [3], the MIC stood at 1 µg/mL.

As for `CC(C)CCOc1ccc(-c2cccc(OCc3cn(C[C@@H](CCCCN)NC(=O)[C@@H](CCCNC(=N)N)n4cc(CC5CCCCC5)nn4)nn3)c2)cc1.Cl.Cl`, the MIC in the data set on Streptococcus pneumoniae was found to be 2 µg/mL; in the data set with Enterococcus faecalis [5], 4 µg/mL; in the data set with Staphylococcus aureus [6], 4 µg/mL; with Clostridioides difficile [7] it was 16 µg/mL; in the data set on Escherichia coli [3], 32 µg/mL; in the data set on Enterococcus faecalis [11] it was 8 µg/mL. Further, the MIC with Staphylococcus aureus [13] is 2 µg/mL; in the data set on Staphylococcus aureus [15], 8 µg/mL; in the data set on Clostridioides difficile [16] it was 16 µg/mL. For the same compound, the HC50 at 1 h in data set [1] is > 32 µg/mL. In addition, the Emax at 23 h in data set [8] was determined as 18%. The MIC80 in the data set on Staphylococcus aureus [2] is ≤ 0.25 µg/mL; in the data set with Klebsiella pneumoniae, 32 µg/mL; with Escherichia coli [4] it was 8 µg/mL; in the data set with Pseudomonas aeruginosa, 16 µg/mL; in the data set on Candida albicans it was 8 µg/mL; in the data set with Acinetobacter baumannii, 32 µg/mL. Also, the MIC80 in the data set on Cryptococcus neoformans is > 32 µg/mL. Further, the hemolysis at 2 h, 50 microg/ml in data set [9] came to 66.5%. Moreover, in data set [10], the hemolysis at 2 h, 5 microg/ml was determined as 2.3%. Also, the hemolysis at 1 h in data set [12] came to 102%. The CC50 at 23 h in [14] was > 32 µg/mL.

In the case of `CCCCCCCCCCCCCCCC1OC2C3CC(C2O1)C(C(=O)NCCNC(=N)N)C3C(=O)NCCNC(=N)N.Cl.Cl` (stereo not drawn), the minimal inhibitory concentration (MIC) in the data set on Staphylococcus aureus [2] came to 1 µg/mL. Also, the CC50 at 23 h in data set [14] is > 50 µg/mL.

With `OC(Cn1cncn1)(Cn1cncn1)c1ccc(F)cc1F` [FLUCONAZOLE], the results for the MIC80 in the data set on Candida albicans and with Cryptococcus neoformans were 0.125 µg/mL (≈ 0.408 µM) and 8 µg/mL (≈ 26.1 µM), respectively.

Regarding `CC(C)CCOc1cccc(-c2ccc(OCc3cn(C[C@@H](CCCCN)NC(=O)[C@@H](CCCNC(=N)N)n4cc(CC5CCCCC5)nn4)nn3)cc2)c1.Cl.Cl`, the minimum inhibitory concentration (MIC) in the data set on Streptococcus pneumoniae came to 4 µg/mL; in the data set with Enterococcus faecalis [5] it was 4 µg/mL; in the data set with Staphylococcus aureus [6], 4 µg/mL; in the data set with Clostridioides difficile [7] it was 16 µg/mL; in the data set on Escherichia coli [3], 16 µg/mL; in the data set on Enterococcus faecalis [11], 16 µg/mL. Besides, the results for the MIC with Staphylococcus aureus [13], in the data set on Staphylococcus aureus [15] and in the data set on Clostridioides difficile [16] were 4 µg/mL, 4 µg/mL and 32 µg/mL, respectively. Further, the HC50 at 1 h in data set [1] is > 32 µg/mL. Also, the Emax at 23 h in data set [8] came to 43%. In addition, the MIC80 in the data set on Staphylococcus aureus [2] is ≤ 0.25 µg/mL; in the data set on Klebsiella pneumoniae it was > 32 µg/mL; in the data set on Escherichia coli [4], 32 µg/mL; with Pseudomonas aeruginosa, 32 µg/mL; with Candida albicans, 16 µg/mL; in the data set with Acinetobacter baumannii, 32 µg/mL. For the same compound, the MIC80 in the data set with Cryptococcus neoformans was > 32 µg/mL. In addition, the hemolysis at 2 h, 50 microg/ml in data set [9] stood at 40.8%. The hemolysis at 2 h, 5 microg/ml in data set [10] worked out at 2.1%. For the same compound, in data set [12], the hemolysis at 1 h came to 88%. Further, the CC50 at 23 h in data set [14] is > 32 µg/mL.
